Assay results published in PubChem BioAssay AID1963958 (Molecular Pharmacology Branch, DTP, NCI, 2024).

Test system: MDA-MB-231 multicell spheroids, viability
Assay: Anticancer human tumor MDA-MB-231 cell line growth inhibition [PI3K];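 note: spheroids exposed to agents for seven days before reading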;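 for viability, T/C: percent of vehicle control luminescence with DMSO treated spheroids as 100%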
Conditions: for IC50: curve of first compound; for viability, T/C: stronger effect = lower value
Method in brief: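 Tumor cells were combined with HUVEC and MSCs into spheroids, then dosed with PI3K-inhibitor combinations over half-log ranges capped near clinical Cmax or 10 microM.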

[1] = second compound 0.0316 µM, first compound 0.0316 µM
[2] = second compound 0.0316 µM, first compound 0.1 µM
[3] = second compound 0.0316 µM, first compound 0.316 µM
[4] = second compound 0.0316 µM, first compound 1 µM
[5] = second compound 0.0316 µM, first compound 3.16 µM
[6] = second compound 0.0316 µM, first compound 10 µM
[7] = second compound 0.1 µM, first compound 0.0316 µM
[8] = second compound 0.1 µM, first compound 0.1 µM
[9] = second compound 0.1 µM, first compound 0.316 µM
[10] = second compound 0.1 µM, first compound 1 µM
[11] = second compound 0.1 µM, first compound 3.16 µM
[12] = second compound 0.1 µM, first compound 10 µM
[13] = second compound 0.316 µM, first compound 0.0316 µM
[14] = second compound 0.316 µM, first compound 0.1 µM
[15] = second compound 0.316 µM, first compound 0.316 µM
[16] = second compound 0.316 µM, first compound 1 µM
[17] = second compound 0.316 µM, first compound 3.16 µM
[18] = second compound 0.316 µM, first compound 10 µM
[19] = second compound 1 µM, first compound 0.0316 µM
[20] = second compound 1 µM, first compound 0.1 µM
[21] = second compound 1 µM, first compound 0.316 µM
[22] = second compound 1 µM, first compound 1 µM
[23] = second compound 1 µM, first compound 3.16 µM
[24] = second compound 1 µM, first compound 10 µM
[25] = second compound 3.16 µM, first compound 0.0316 µM
[26] = second compound 3.16 µM, first compound 0.1 µM
[27] = second compound 3.16 µM, first compound 0.316 µM
[28] = second compound 3.16 µM, first compound 1 µM
[29] = second compound 3.16 µM, first compound 3.16 µM
[30] = second compound 3.16 µM, first compound 10 µM
[31] = second compound 10 µM, first compound 0.0316 µM
[32] = second compound 10 µM, first compound 0.1 µM
[33] = second compound 10 µM, first compound 0.316 µM
[34] = second compound 10 µM, first compound 1 µM
[35] = second compound 10 µM, first compound 3.16 µM
[36] = second compound 10 µM, first compound 10 µM

Work on `C#Cc1c(F)ccc2cc(O)cc(-c3ncc4c(N5CC6CCC(C5)N6)nc(OCC56CCCN5CC(F)C6)nc4c3F)c12` (stereo unspecified) + Cc1nc(NC(=O)N2CCCC2C(N)=O)sc1-c1ccnc(C(C)(C)C(F)(F)F)c1 yielded an IC50 (second compound 0.0316 µM) greater than 10000 nM, an IC50 (second compound 0.1 µM) of 7620 nM and an IC50 (second compound 0.316 µM) of 5670 nM. It also gave an IC50 (second compound 1 µM) of 1700 nM, an IC50 (second compound 3.16 µM) of 847 nM and an IC50 (second compound 10 µM) of 230 nM. For the same compound, the viability, T/C [1] was 106%, the viability, T/C [2] was 96% and the viability, T/C [3] was 101%. The viability, T/C [4] was 68.3%, the viability, T/C [5] was 75.6% and the viability, T/C [6] was 54.9%. It also gave a viability, T/C [7] of 88.8%, a viability, T/C [8] of 87.6% and a viability, T/C [9] of 85.4%. For the same compound, the viability, T/C [10] was 73%, the viability, T/C [11] was 65.5% and the viability, T/C [12] was 45.2%. For the same compound, the viability, T/C [13] was 77.7%, the viability, T/C [14] was 82.8% and the viability, T/C [15] was 69.4%. For the same compound, the viability, T/C [16] was 60.4%, the viability, T/C [17] was 62% and the viability, T/C [18] was 42%. For the same compound, the viability, T/C [19] was 74.1%, the viability, T/C [20] was 69.8% and the viability, T/C [21] was 67.3%. It also gave a viability, T/C [22] of 55.2%, a viability, T/C [23] of 43.3% and a viability, T/C [24] of 33.3%. For the same compound, the viability, T/C [25] was 69.6%, the viability, T/C [26] was 65.5% and the viability, T/C [27] was 53.4%. It also gave a viability, T/C [28] of 49.6%, a viability, T/C [29] of 42% and a viability, T/C [30] of 28%. For the same compound, the viability, T/C [31] was 64.2%, the viability, T/C [32] was 58.4% and the viability, T/C [33] was 45.3%. For the same compound, the viability, T/C [34] was 36.9%, the viability, T/C [35] was 32% and the viability, T/C [36] was 18.1%.

Compound `CC(Cn1ccc(-c2ccc(C#N)c(Cl)c2)n1)NC(=O)c1cc(C(C)O)[nH]n1` (stereo unspecified) + Cc1nc(NC(=O)N2CCCC2C(N)=O)sc1-c1ccnc(C(C)(C)C(F)(F)F)c1 has an IC50 (second compound 0.0316 µM) greater than 10000 nM, an IC50 (second compound 0.1 µM) greater than 10000 nM and an IC50 (second compound 0.316 µM) greater than 10000 nM. It also gave an IC50 (second compound 1 µM) greater than 10000 nM, an IC50 (second compound 3.16 µM) greater than 10000 nM and an IC50 (second compound 10 µM) greater than 10000 nM. The viability, T/C [1] was 92.9%, the viability, T/C [2] was 88.3% and the viability, T/C [3] was 98.9%. The viability, T/C [4] was 93.5%, the viability, T/C [5] was 86.4% and the viability, T/C [6] was 83.3%. It also gave a viability, T/C [7] of 86.8%, a viability, T/C [8] of 78.8% and a viability, T/C [9] of 87%. The viability, T/C [10] was 89.3%, the viability, T/C [11] was 86.2% and the viability, T/C [12] was 74.5%. It also gave a viability, T/C [13] of 73.2%, a viability, T/C [14] of 71.6% and a viability, T/C [15] of 77.4%. The viability, T/C [16] was 72.5%, the viability, T/C [17] was 68.2% and the viability, T/C [18] was 64.8%. The viability, T/C [19] was 68.6%, the viability, T/C [20] was 70.9% and the viability, T/C [21] was 67.1%. It also gave a viability, T/C [22] of 72.3%, a viability, T/C [23] of 66.6% and a viability, T/C [24] of 59.8%. It also gave a viability, T/C [25] of 68.4%, a viability, T/C [26] of 67.3% and a viability, T/C [27] of 68.7%. For the same compound, the viability, T/C [28] was 64.6%, the viability, T/C [29] was 61.9% and the viability, T/C [30] was 56.6%. For the same compound, the viability, T/C [31] was 68.3%, the viability, T/C [32] was 58% and the viability, T/C [33] was 60.3%. It also gave a viability, T/C [34] of 64.2%, a viability, T/C [35] of 62.8% and a viability, T/C [36] of 49.8%.

Work on `CC1(C)CCC(Nc2ncc(C(F)(F)F)c(-c3c[nH]c4c(P(C)(C)=O)c(C#N)ccc34)n2)CN1` (stereo unspecified) + Cc1nc(NC(=O)N2CCCC2C(N)=O)sc1-c1ccnc(C(C)(C)C(F)(F)F)c1 yielded an IC50 (second compound 0.0316 µM) of 31.6 nM, an IC50 (second compound 0.1 µM) of 31.6 nM and an IC50 (second compound 0.316 µM) of less than 31.6 nM. For the same compound, the IC50 (second compound 1 µM) was less than 31.6 nM, the IC50 (second compound 3.16 µM) was less than 31.6 nM and the IC50 (second compound 10 µM) was less than 31.6 nM. For the same compound, the viability, T/C [1] was 47.6%, the viability, T/C [2] was 42.8% and the viability, T/C [3] was 47.6%. For the same compound, the viability, T/C [4] was 51.2%, the viability, T/C [5] was 54.6% and the viability, T/C [6] was 4.85%. The viability, T/C [7] was 48.5%, the viability, T/C [8] was 44.1% and the viability, T/C [9] was 45.2%. For the same compound, the viability, T/C [10] was 49.9%, the viability, T/C [11] was 52.5% and the viability, T/C [12] was 5.6%. It also gave a viability, T/C [13] of 44.5%, a viability, T/C [14] of 42.7% and a viability, T/C [15] of 44.7%. For the same compound, the viability, T/C [16] was 45.5%, the viability, T/C [17] was 47.5% and the viability, T/C [18] was 3.95%. The viability, T/C [19] was 43.4%, the viability, T/C [20] was 43.8% and the viability, T/C [21] was 43.9%. It also gave a viability, T/C [22] of 45.4%, a viability, T/C [23] of 44.8% and a viability, T/C [24] of 3.6%. For the same compound, the viability, T/C [25] was 43.5%, the viability, T/C [26] was 44% and the viability, T/C [27] was 42.5%. The viability, T/C [28] was 42.6%, the viability, T/C [29] was 40.4% and the viability, T/C [30] was 4.49%. The viability, T/C [31] was 41.7%, the viability, T/C [32] was 43.4% and the viability, T/C [33] was 40.5%. It also gave a viability, T/C [34] of 40.3%, a viability, T/C [35] of 38.1% and a viability, T/C [36] of 3.35%.
